# According to PMC9481151, “Discovery of new symmetrical and asymmetrical nitrile-containing 1,4-dihydropyridine derivatives as dual kinases and P-glycoprotein inhibitors: synthesis, in vitro assays, and in silico studies” (Journal of Enzyme Inhibition and Medicinal Chemistry, 2022):
# How the values were obtained:
# MDA-MB-468 = experiment: NCI single dose (10 µM) SRB screen; assay type: cell-based, human; conditions: breast cancer, 48 h
# 786-0 = experiment: NCI single dose (10 µM) SRB screen; assay type: cell-based, human; conditions: renal cancer, 48 h
# SF-268 = experiment: NCI single dose (10 µM) SRB screen; assay type: cell-based, human; conditions: CNS cancer, 48 h
# PC-3 = experiment: NCI single dose (10 µM) SRB screen; assay type: cell-based, human; conditions: prostate cancer, 48 h
# Escherichia coli = experiment: Agar well diffusion method; conditions: relative to ciprofloxacin
# SNB-19 = experiment: NCI single dose (10 µM) SRB screen; assay type: cell-based, human; conditions: CNS cancer, 48 h
# HT29 = experiment: NCI single dose (10 µM) SRB screen; assay type: cell-based, human; conditions: colon cancer, 48 h
# OVCAR-4 = experiment: NCI single dose (10 µM) SRB screen; assay type: cell-based, human; conditions: ovarian cancer, 48 h
# RPMI-8226 = experiment: NCI single dose (10 µM) SRB screen; assay type: cell-based, human; conditions: leukaemia, 48 h
# CCRF-CEM = experiment: NCI single dose (10 µM) SRB screen; assay type: cell-based, human; conditions: leukaemia, 48 h
# OVCAR-5 = experiment: NCI single dose (10 µM) SRB screen; assay type: cell-based, human; conditions: ovarian cancer, 48 h
# NCI-H522 = experiment: NCI single dose (10 µM) SRB screen; assay type: cell-based, human; conditions: non-small cell lung cancer, 48 h
# SW-620 = experiment: NCI single dose (10 µM) SRB screen; assay type: cell-based, human; conditions: colon cancer, 48 h
# SK-OV-3 = experiment: NCI single dose (10 µM) SRB screen; assay type: cell-based, human; conditions: ovarian cancer, 48 h
# TK-10 = experiment: NCI single dose (10 µM) SRB screen; assay type: cell-based, human; conditions: renal cancer, 48 h
# SN12C = experiment: NCI single dose (10 µM) SRB screen; assay type: cell-based, human; conditions: renal cancer, 48 h
# NCI-H460 = experiment: NCI single dose (10 µM) SRB screen; assay type: cell-based, human; conditions: non-small cell lung cancer, 48 h
# NCI/ADR-RES = experiment: NCI single dose (10 µM) SRB screen; assay type: cell-based, human; conditions: ovarian cancer, 48 h
# IGROV1 = experiment: NCI single dose (10 µM) SRB screen; assay type: cell-based, human; conditions: ovarian cancer, 48 h
# UACC-257 = experiment: NCI single dose (10 µM) SRB screen; assay type: cell-based, human; conditions: melanoma, 48 h
# OVCAR-8 = experiment: NCI single dose (10 µM) SRB screen; assay type: cell-based, human; conditions: ovarian cancer, 48 h
# MDA-MB-435 = experiment: NCI single dose (10 µM) SRB screen; assay type: cell-based, human; conditions: melanoma, 48 h
# NCI-H226 = experiment: NCI single dose (10 µM) SRB screen; assay type: cell-based, human; conditions: non-small cell lung cancer, 48 h
# OVCAR-3 = experiment: NCI single dose (10 µM) SRB screen; assay type: cell-based, human; conditions: ovarian cancer, 48 h
# Aspergillus flavus = experiment: Agar well diffusion method
# HCT-116 = experiment: NCI single dose (10 µM) SRB screen; assay type: cell-based, human; conditions: colon cancer, 48 h
# NCI 60 cancer cell lines = experiment: NCI single dose (10 µM) SRB screen, mean over panel; assay type: cell-based, human; conditions: mean over 60 cell lines, 48 h
# DU-145 = experiment: NCI single dose (10 µM) SRB screen; assay type: cell-based, human; conditions: prostate cancer, 48 h
# ACHN = experiment: NCI single dose (10 µM) SRB screen; assay type: cell-based, human; conditions: renal cancer, 48 h
# SK-MEL-5 = experiment: NCI single dose (10 µM) SRB screen; assay type: cell-based, human; conditions: melanoma, 48 h
# A549/ATCC = experiment: NCI single dose (10 µM) SRB screen; assay type: cell-based, human; conditions: non-small cell lung cancer, 48 h
# CAKI-1 = experiment: NCI single dose (10 µM) SRB screen; assay type: cell-based, human; conditions: renal cancer, 48 h
# LOX IMVI = experiment: NCI single dose (10 µM) SRB screen; assay type: cell-based, human; conditions: melanoma, 48 h
# SR = experiment: NCI single dose (10 µM) SRB screen; assay type: cell-based, human; conditions: leukaemia, 48 h
# SK-MEL-28 = experiment: NCI single dose (10 µM) SRB screen; assay type: cell-based, human; conditions: melanoma, 48 h
# KM12 = experiment: NCI single dose (10 µM) SRB screen; assay type: cell-based, human; conditions: colon cancer, 48 h
# NCI-H23 = experiment: NCI single dose (10 µM) SRB screen; assay type: cell-based, human; conditions: non-small cell lung cancer, 48 h
# M14 = experiment: NCI single dose (10 µM) SRB screen; assay type: cell-based, human; conditions: melanoma, 48 h
# COLO 205 = experiment: NCI single dose (10 µM) SRB screen; assay type: cell-based, human; conditions: colon cancer, 48 h
# U251 = experiment: NCI single dose (10 µM) SRB screen; assay type: cell-based, human; conditions: CNS cancer, 48 h
# MOLT-4 = experiment: NCI single dose (10 µM) SRB screen; assay type: cell-based, human; conditions: leukaemia, 48 h
# SNB-75 = experiment: NCI single dose (10 µM) SRB screen; assay type: cell-based, human; conditions: CNS cancer, 48 h
# Bacillus subtilis = experiment: Agar well diffusion method
# SF-295 = experiment: NCI single dose (10 µM) SRB screen; assay type: cell-based, human; conditions: CNS cancer, 48 h
# Staphylococcus aureus = experiment: Agar well diffusion method
# SF-539 = experiment: NCI single dose (10 µM) SRB screen; assay type: cell-based, human; conditions: CNS cancer, 48 h
# HL-60(TB) = experiment: NCI single dose (10 µM) SRB screen; assay type: cell-based, human; conditions: leukaemia, 48 h
# A498 = experiment: NCI single dose (10 µM) SRB screen; assay type: cell-based, human; conditions: renal cancer, 48 h
# RXF 393 = experiment: NCI single dose (10 µM) SRB screen; assay type: cell-based, human; conditions: renal cancer, 48 h
# MCF7 = experiment: NCI single dose (10 µM) SRB screen; assay type: cell-based, human; conditions: breast cancer, 48 h
# NCI-H322M = experiment: NCI single dose (10 µM) SRB screen; assay type: cell-based; conditions: non-small cell lung cancer, 48 h
# MALME-3M = experiment: NCI single dose (10 µM) SRB screen; assay type: cell-based, human; conditions: melanoma, 48 h
smiles,measurement,setting,value
"CCOC(=O)C1=C(C)NC(C)=C(C(=O)OC(C)C)C1c1cccc(C#N)c1 (racemic) [Compound 2h, (±)-3-Ethyl 5-isopropyl 4-(3-cyanophenyl)-2,6-dimethyl-1,4-dihydropyridine-3,5-dicarboxylate]",GI% MDA-MB-468,MDA-MB-468,20%
same,GI% 786-0,786-0,– (Only GI% ≥ 10 are shown)
same,GI% SF-268,SF-268,– (Only GI% ≥ 10 are shown)
same,GI% PC-3,PC-3,12%
same,"% activity index, E. coli",Escherichia coli,– (Values below 25 are of limited value and not shown as they refer either to inactive or non-diffusing compounds)
same,GI% SNB-19,SNB-19,– (Only GI% ≥ 10 are shown)
same,GI% HT29,HT29,– (Only GI% ≥ 10 are shown)
same,GI% OVCAR-4,OVCAR-4,– (Only GI% ≥ 10 are shown)
same,GI% RPMI-8226,RPMI-8226,– (Only GI% ≥ 10 are shown)
same,GI% CCRF-CEM,CCRF-CEM,– (Only GI% ≥ 10 are shown)
same,GI% OVCAR-5,OVCAR-5,– (Only GI% ≥ 10 are shown)
same,GI% NCI-H522,NCI-H522,– (Only GI% ≥ 10 are shown)
same,GI% SW-620,SW-620,– (Only GI% ≥ 10 are shown)
same,GI% SK-OV-3,SK-OV-3,– (Only GI% ≥ 10 are shown)
same,GI% TK-10,TK-10,– (Only GI% ≥ 10 are shown)
same,GI% SN12C,SN12C,– (Only GI% ≥ 10 are shown)
same,GI% NCI-H460,NCI-H460,– (Only GI% ≥ 10 are shown)
same,GI% NCI/ADR-RES,NCI/ADR-RES,– (Only GI% ≥ 10 are shown)
same,GI% IGROV1,IGROV1,– (Only GI% ≥ 10 are shown)
same,GI% UACC-257,UACC-257,– (Only GI% ≥ 10 are shown)
same,GI% OVCAR-8,OVCAR-8,– (Only GI% ≥ 10 are shown)
same,GI% MDA-MB-435,MDA-MB-435,– (Only GI% ≥ 10 are shown)
same,GI% NCI-H226,NCI-H226,– (Only GI% ≥ 10 are shown)
same,GI% OVCAR-3,OVCAR-3,– (Only GI% ≥ 10 are shown)
same,zone of inhibition at 1000 µg/mL,"Aspergillus flavus; Aspergillus flavus, 24 h, read-out: Diameter of inhibition zone, A. flavus",12 mm
same,"% activity index, A. flavus",Aspergillus flavus; relative to clotrimazole,48%
same,GI% HCT-116,HCT-116,– (Only GI% ≥ 10 are shown)
same,Mean GI%,NCI 60 cancer cell lines,0%
same,GI% DU-145,DU-145,– (Only GI% ≥ 10 are shown)
same,GI% ACHN,ACHN,– (Only GI% ≥ 10 are shown)
same,GI% SK-MEL-5,SK-MEL-5,– (Only GI% ≥ 10 are shown)
same,GI% A549/ATCC,A549/ATCC,– (Only GI% ≥ 10 are shown)
same,GI% CAKI-1,CAKI-1,15%
same,GI% LOX IMVI,LOX IMVI,– (Only GI% ≥ 10 are shown)
same,GI% SR,SR,– (Only GI% ≥ 10 are shown)
same,GI% SK-MEL-28,SK-MEL-28,– (Only GI% ≥ 10 are shown)
same,GI% KM12,KM12,– (Only GI% ≥ 10 are shown)
same,GI% NCI-H23,NCI-H23,– (Only GI% ≥ 10 are shown)
same,GI% M14,M14,– (Only GI% ≥ 10 are shown)
same,GI% COLO 205,COLO 205,– (Only GI% ≥ 10 are shown)
same,GI% U251,U251,– (Only GI% ≥ 10 are shown)
same,GI% MOLT-4,MOLT-4,11%
same,GI% SNB-75,SNB-75,15%
same,zone of inhibition at 1000 µg/mL,"Bacillus subtilis; Bacillus subtilis, 24 h, read-out: Diameter of inhibition zone, B. subtilis",8 mm
same,"% activity index, B. subtilis",Bacillus subtilis; relative to ciprofloxacin,34.8%
same,GI% SF-295,SF-295,– (Only GI% ≥ 10 are shown)
same,zone of inhibition at 1000 µg/mL,"Staphylococcus aureus; Staphylococcus aureus, 24 h, read-out: Diameter of inhibition zone, S. aureus",11 mm
same,"% activity index, S. aureus",Staphylococcus aureus; relative to ciprofloxacin,45.8%
same,GI% SF-539,SF-539,– (Only GI% ≥ 10 are shown)
same,GI% HL-60(TB),HL-60(TB),– (Only GI% ≥ 10 are shown)
same,GI% A498,A498,16%
same,GI% RXF 393,RXF 393,– (Only GI% ≥ 10 are shown)
same,GI% MCF7,MCF7,– (Only GI% ≥ 10 are shown)
same,GI% NCI-H322M,NCI-H322M,– (Only GI% ≥ 10 are shown)
same,GI% MALME-3M,MALME-3M,– (Only GI% ≥ 10 are shown)
